Source: patent publication US10556888B2, “Pyrazole compounds or salts thereof, preparation methods therefor, herbicidal compositions and use thereof” (QINGDAO KINGAGROOT CHEMICAL COMPOUNDS CO., LTD, priority 2015, dated 2020)

Assays:
[1] = test system: Monocotyledonous and dicotyledonous weed; test: Post-emergence test experiment, weed control effect (Table 2); assay type: in vivo; set-up: key to weed control effect, Setaria viridis (level) / weed control effect, Rorippa indica (level) / weed control effect, Abutilon theophrasti (level) / weed control effect, Echinochloa crus-galli (level) / weed control effect, Digitaria sanguinalis (level): Level 10: completely dead; Level 9: above 90% growth inhibition rate; Level 8: above 80% growth inhibition rate; Level 7: above 70% growth inhibition rate; Level 6: above 60% growth inhibition rate; Level 5: above 50% growth inhibition rate; Level 4: above 30% growth inhibition rate; Level 3: above 20% growth inhibition rate; Level 2: above 10% growth inhibition rate; Level 1: above 1-10% growth inhibition rate; Level 0: no effect; details: 3 weeks after spraying, greenhouse
Outline: (§1)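 Weed and crop seeds (wheat, corn, rice, soybean, cotton, oilseed, millet, sorghum) grown in soil in greenhouse; sprayed at 2-3 leaf stage, 2-3 weeks after sowing, with compound in acetone/Tween 80/water. Effects assessed after 3 weeks further greenhouse culture.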

[2] = test system: main crop (wheat, corn, rice, soybean, cotton, oilseed, millet and sorghum); test: Post-emergence test experiment, main crops (Table 2); assay type: in vivo; set-up: key: Level 10: completely dead; Level 9: above 90% growth inhibition rate; Level 8: above 80% growth inhibition rate; Level 7: above 70% growth inhibition rate; Level 6: above 60% growth inhibition rate; Level 5: above 50% growth inhibition rate; Level 4: above 30% growth inhibition rate; Level 3: above 20% growth inhibition rate; Level 2: above 10% growth inhibition rate; Level 1: above 1-10% growth inhibition rate; Level 0: no effect; details: 3 weeks after spraying, greenhouse
Outline: as §1

SMILES	weed control effect, Abutilon theophrasti (level) ([1]; 30 g/ha)	weed control effect, Bidens pilosa (level) ([1]; 30 g/ha)	weed control effect, Digitaria sanguinalis (level) ([1]; 30 g/ha)	weed control effect, Echinochloa crus-galli (level) ([1]; 30 g/ha)	weed control effect, Rorippa indica (level) ([1]; 30 g/ha)	weed control effect, Setaria viridis (level) ([1]; 30 g/ha)	effect on crop, corn (level) ([2]; 30 g/ha)	effect on crop, rice (level) ([2]; 30 g/ha)	effect on crop, wheat (level) ([2]; 30 g/ha)	other results
CCOCCOCc1c(S(C)(=O)=O)ccc(C(=O)c2cnn(C)c2OC(=O)c2cn(C)nc2C)c1Cl [Compound 45]	7 (Level 7: above 70% growth inhibition rate)	7 (Level 7: above 70% growth inhibition rate)	7 (Level 7: above 70% growth inhibition rate)	9 (Level 9: above 90% growth inhibition rate)	10	7 (Level 7: above 70% growth inhibition rate)	0	3 (Level 3: above 20% growth inhibition rate)	0	
Cc1nn(C)cc1C(=O)Oc1c(C(=O)c2ccc(S(C)(=O)=O)c(Cn3cccn3)c2Cl)c(C)nn1C [Compound 01]										weed control effect, Abutilon theophrasti (level) ([1]; 60 g/ha): 10; weed control effect, Bidens pilosa (level) ([1]; 60 g/ha): 8 (Level 8: above 80% growth inhibition rate); weed control effect, Digitaria sanguinalis (level) ([1]; 60 g/ha): 10; weed control effect, Echinochloa crus-galli (level) ([1]; 60 g/ha): 10; weed control effect, Rorippa indica (level) ([1]; 60 g/ha): 10; weed control effect, Setaria viridis (level) ([1]; 60 g/ha): 10; effect on crop, corn (level) ([2]; 60 g/ha): 1 (Level 1: above 1-10% growth inhibition rate); effect on crop, rice (level) ([2]; 60 g/ha): 1 (Level 1: above 1-10% growth inhibition rate); effect on crop, wheat (level) ([2]; 60 g/ha): 1 (Level 1: above 1-10% growth inhibition rate)
CCc1nn(C)c(OC(=O)c2cn(C)nc2C)c1C(=O)c1ccc(S(C)(=O)=O)c(COCC(F)(F)F)c1Cl [Compound 32]	7 (Level 7: above 70% growth inhibition rate)	7 (Level 7: above 70% growth inhibition rate)	10	10	5 (Level 5: above 50% growth inhibition rate)	10	1 (Level 1: above 1-10% growth inhibition rate)	5 (Level 5: above 50% growth inhibition rate)	0	
CCc1nn(C)c(OC(=O)c2cn(C)nc2C)c1C(=O)c1ccc(S(C)(=O)=O)c(Cn2nc(C)cc2C)c1Cl [Compound 30]										weed control effect, Abutilon theophrasti (level) ([1]; 120 g/ha): 6 (Level 6: above 60% growth inhibition rate); weed control effect, Bidens pilosa (level) ([1]; 120 g/ha): 6 (Level 6: above 60% growth inhibition rate); weed control effect, Digitaria sanguinalis (level) ([1]; 120 g/ha): 4 (Level 4: above 30% growth inhibition rate); weed control effect, Echinochloa crus-galli (level) ([1]; 120 g/ha): 8 (Level 8: above 80% growth inhibition rate); weed control effect, Rorippa indica (level) ([1]; 120 g/ha): 4 (Level 4: above 30% growth inhibition rate); weed control effect, Setaria viridis (level) ([1]; 120 g/ha): 10; effect on crop, corn (level) ([2]; 120 g/ha): 0; effect on crop, rice (level) ([2]; 120 g/ha): 0; effect on crop, wheat (level) ([2]; 120 g/ha): 0
CCOCc1c(S(C)(=O)=O)ccc(C(=O)c2cnn(C)c2OC(=O)c2cnn(C)c2OCC)c1C [Compound 80]	6 (Level 6: above 60% growth inhibition rate)	7 (Level 7: above 70% growth inhibition rate)	7 (Level 7: above 70% growth inhibition rate)	10	10	6 (Level 6: above 60% growth inhibition rate)	0	3 (Level 3: above 20% growth inhibition rate)	0	
Cc1nn(C)c(OC(=O)c2cnn(C)c2)c1C(=O)c1ccc(S(C)(=O)=O)c(COCC(F)F)c1Cl [Compound 64]	5 (Level 5: above 50% growth inhibition rate)	5 (Level 5: above 50% growth inhibition rate)	9 (Level 9: above 90% growth inhibition rate)	10	10	10	2 (Level 2: above 10% growth inhibition rate)	3 (Level 3: above 20% growth inhibition rate)	0	
Cc1nn(C)cc1C(=O)Oc1c(C(=O)c2ccc(S(C)(=O)=O)c(Cn3cccn3)c2C)cnn1C [Compound 77]	7 (Level 7: above 70% growth inhibition rate)	7 (Level 7: above 70% growth inhibition rate)	7 (Level 7: above 70% growth inhibition rate)	10	10	10	1 (Level 1: above 1-10% growth inhibition rate)	3 (Level 3: above 20% growth inhibition rate)	0	
CCOc1c(C(=O)Oc2c(C(=O)c3ccc(S(C)(=O)=O)c(COCC(F)(F)F)c3Cl)c(C)nn2C)cnn1C [Compound 55]	7 (Level 7: above 70% growth inhibition rate)	7 (Level 7: above 70% growth inhibition rate)	10	10	10	10	2 (Level 2: above 10% growth inhibition rate)	3 (Level 3: above 20% growth inhibition rate)	0	
CCc1nn(CC)c(OC(=O)c2cn(C)nc2C)c1C(=O)c1ccc(S(C)(=O)=O)c(COCC(F)F)c1Cl [Compound 94]										weed control effect, Abutilon theophrasti (level) ([1]; 60 g/ha): 10; weed control effect, Bidens pilosa (level) ([1]; 60 g/ha): 8 (Level 8: above 80% growth inhibition rate); weed control effect, Digitaria sanguinalis (level) ([1]; 60 g/ha): 8 (Level 8: above 80% growth inhibition rate); weed control effect, Echinochloa crus-galli (level) ([1]; 60 g/ha): 8 (Level 8: above 80% growth inhibition rate); weed control effect, Rorippa indica (level) ([1]; 60 g/ha): 10; weed control effect, Setaria viridis (level) ([1]; 60 g/ha): 10; effect on crop, corn (level) ([2]; 60 g/ha): 0; effect on crop, rice (level) ([2]; 60 g/ha): 3 (Level 3: above 20% growth inhibition rate); effect on crop, wheat (level) ([2]; 60 g/ha): 0
Cc1nn(C)c(OC(=O)c2cnn(C)c2)c1C(=O)c1ccc(S(C)(=O)=O)c(Cn2cccn2)c1Cl [Compound 16]										weed control effect, Abutilon theophrasti (level) ([1]; 60 g/ha): 10; weed control effect, Bidens pilosa (level) ([1]; 60 g/ha): 8 (Level 8: above 80% growth inhibition rate); weed control effect, Digitaria sanguinalis (level) ([1]; 60 g/ha): 10; weed control effect, Echinochloa crus-galli (level) ([1]; 60 g/ha): 10; weed control effect, Rorippa indica (level) ([1]; 60 g/ha): 10; weed control effect, Setaria viridis (level) ([1]; 60 g/ha): 8 (Level 8: above 80% growth inhibition rate); effect on crop, corn (level) ([2]; 60 g/ha): 0; effect on crop, rice (level) ([2]; 60 g/ha): 1 (Level 1: above 1-10% growth inhibition rate); effect on crop, wheat (level) ([2]; 60 g/ha): 1 (Level 1: above 1-10% growth inhibition rate)
Cc1nn(C)cc1C(=O)Oc1c(C(=O)c2ccc(S(C)(=O)=O)c(COCC(F)F)c2Cl)c(C2CC2)nn1C [Compound 50]	6 (Level 6: above 60% growth inhibition rate)	7 (Level 7: above 70% growth inhibition rate)	8 (Level 8: above 80% growth inhibition rate)	10	10	9 (Level 9: above 90% growth inhibition rate)	0	3 (Level 3: above 20% growth inhibition rate)	0	
CC=CCOCc1c(S(C)(=O)=O)ccc(C(=O)c2cnn(CC)c2OC(=O)c2cnn(C)c2)c1Cl [Compound 88]	6 (Level 6: above 60% growth inhibition rate)	7 (Level 7: above 70% growth inhibition rate)	8 (Level 8: above 80% growth inhibition rate)	7 (Level 7: above 70% growth inhibition rate)	10	8 (Level 8: above 80% growth inhibition rate)	0	3 (Level 3: above 20% growth inhibition rate)	0	
C#CCOCc1c(S(C)(=O)=O)ccc(C(=O)c2cnn(C)c2OC(=O)c2cn(C)nc2C)c1Cl [Compound 41]	7 (Level 7: above 70% growth inhibition rate)	7 (Level 7: above 70% growth inhibition rate)	8 (Level 8: above 80% growth inhibition rate)	10	10	10	0	5 (Level 5: above 50% growth inhibition rate)	0	
